Experimental data taken from patent publication US8476012B2, “Physiogenomic method for predicting metabolic and cardiovascular side effects of thiazolidinediones” (Genomas, Inc., priority 2008, dated 2013).

Assays:
[1] = suggested by various meta analyses; since disputed; cited from earlier work
[2] = HbA1c level (efficacy indicator) in type 2 diabetes outpatients on thiazolidinedione therapy; assay type: in vivo, human; settings: average by covariate; type 2 diabetes outpatients treated ≧4 months; from most recent medical records
Procedure: (§1) Outpatients with type 2 diabetes treated between February and June 2007 with rosiglitazone ([…]) or pioglitazone (n=33) for ≧4 months at the Joslin Diabetes Center affiliate of The Hospital of Central Connecticut (THOCC) in New Britain, Conn. were recruited as volunteer subjects. There were no exclusionary criteria. Each subject provided informed written consent as approved by the THOCC Institutional Review Board.
Hemoglobin A1c: HbA1c levels were measured via ion exchange using the HPLC Variant II (BioRad Laboratories, Hercules Calif.).
(§2) Physiogenomic Analysis. Patients treated with rosiglitazone or pioglitazone were recruited from THOCC clinics and provided informed written consent as approved by the THOCC Institutional Review Board. For physiogenomic associations to HbA1c, body mass index and edema, genotype data were obtained on 88 patients, 55 on rosiglitazone and 33 on pioglitazone regimens. A standardized set of phenotypes were collected from the most recent medical records for each patient. Valid genotype data were obtained on the 88 patients. Extensive information on co-medications and disease history were also collected to control for environmental effects.
(§3) HbA1c was selected as an indicator for efficacy, and body mass index and edema as indicators of undesired side effect. […] The phenotypes were analyzed for covariate dependence on age, gender, ethnicity, and treatment.

[3] = set-up: species or system human; settings: in vivo
Description: as §1
Clinical Assessment. Patient characteristics included age, height, weight, body mass index, and the presence/absence of edema as recorded by a physician.
as §2, with “Extensive information on co-medications and disease history were also collected to control for environmental effects.” left out
as §3

SMILES | risk for myocardial infarction (MI) [1] | HbA1c [2] [%] | BMI [3]
CN(CCOc1ccc(CC2SC(=O)NC2=O)cc1)c1ccccn1 (stereo not drawn) [rosiglitazone] | may increase the risk for myocardial infarction | 7.4 | 33.7
CCc1ccc(CCOc2ccc(CC3SC(=O)NC3=O)cc2)nc1 (stereo not drawn) [pioglitazone] | does not | 7.4 | 33.4
